Five compounds from ChEMBL document CHEMBL1123618, “alpha,alpha-Difluoro-beta-aminodeoxystatine-containing renin inhibitory peptides” (J Med Chem, 1987) can be followed below.

For orientation: IC50 means the concentration at which inhibition is half-maximal. A low value points to higher potency.

The experiment concerns the target T1, Renin (Homo sapiens, UniProt P00797).
T1 sequence (P00797 whole entry): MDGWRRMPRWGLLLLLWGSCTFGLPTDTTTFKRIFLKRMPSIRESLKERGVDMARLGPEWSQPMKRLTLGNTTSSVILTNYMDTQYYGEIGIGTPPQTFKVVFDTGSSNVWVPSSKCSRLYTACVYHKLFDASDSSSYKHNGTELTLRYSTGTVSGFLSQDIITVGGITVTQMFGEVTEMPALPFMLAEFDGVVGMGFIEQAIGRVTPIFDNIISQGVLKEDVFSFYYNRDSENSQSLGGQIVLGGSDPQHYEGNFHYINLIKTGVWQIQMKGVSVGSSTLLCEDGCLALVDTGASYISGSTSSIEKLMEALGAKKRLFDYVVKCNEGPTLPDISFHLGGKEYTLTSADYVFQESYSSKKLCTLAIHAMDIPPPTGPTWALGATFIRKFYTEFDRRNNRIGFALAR
The experiment in a line: Inhibitory activity against human plasma renin. The class given is cell-free.
In turn, `CC[C@H](C)[C@H](NC(=O)C[C@@H](O)[C@H](CC(C)C)NC(=O)[C@H](Cc1c[nH]cn1)NC(=O)[C@H](Cc1ccccc1)NC(=O)OC(C)(C)C)C(=O)NCc1ccccn1` had a half-inhibitory concentration (IC50) of 0.33 µM. Next, `CC[C@H](C)[C@H](NC(=O)C(F)(F)[C@@H](N)[C@H](CC(C)C)NC(=O)[C@H](Cc1cnc[nH]1)NC(=O)[C@H](Cc1ccccc1)NC(=O)OC(C)(C)C)C(=O)NCc1ccccn1`: 2.8 µM. For the compound `CC[C@H](C)[C@H](NC(=O)C(F)(F)[C@H](N)[C@H](CC(C)C)NC(=O)[C@H](Cc1cnc[nH]1)NC(=O)[C@H](Cc1ccccc1)NC(=O)OC(C)(C)C)C(=O)NCc1ccccn1`, half-maximal inhibition (IC50) was put at 0.34 µM. As for `CC[C@H](C)[C@H](NC(=O)C[C@H](N)[C@H](CC(C)C)NC(=O)[C@H](Cc1c[nH]cn1)NC(=O)[C@H](Cc1ccccc1)NC(=O)OC(C)(C)C)C(=O)NCc1ccccn1`, the figure is 0.015 µM; as for `CC[C@H](C)[C@H](NC(=O)C[C@@H](N)[C@H](CC(C)C)NC(=O)[C@H](Cc1c[nH]cn1)NC(=O)[C@H](Cc1ccccc1)NC(=O)OC(C)(C)C)C(=O)NCc1ccccn1`, 0.48 µM.
